No end group written: not given here.
What was measured:
[1] = tested on: β-amyloid peptide 1-16 (EFRH-epitope); assay: Immunization of Balb/C mice; serum Ig titers by ELISA against the EFRH-epitope (β-amyloid peptide 1-16); assay type: in vivo; settings: i.p., filamentous phage as adjuvant, five injections; FIG. 10
Procedure: Four mice (named A, B, C, D) were immunized at two week intervals with 100 μg of MAP-[…] (SEQ ID NO:1)+adjuvant (either Complete Freund's or Incomplete Freund's adjuvant) by intraperitoneal injection, and two mice were immunized with H2O+adjuvant as a negative control. All mice were 8 week old female mice.
In experiments of antibody binding to β-amyloid peptide 1-16, 100 ng/well biotinylated β-amyloid peptides 1-16 were bound to streptavidin-coated microtiter plates for ½ h at room temperature. ELISA plates were previously coated with streptavidin for 16 h at 4° C. after washing, bound antibodies to β-peptide were detected by incubation with horseradish peroxidase-conjugated antibodies, as previously described in Frenkel et al. (1999). The Ig type was measured with rabit anti-mouse IgG and anti-mouse IgM labeled with horseradish peroxidase.
Two female mice 8 weeks old (named A and B) were immunized at approximately two week intervals with 200 μg of MAP-(EFRH)2+filamentous phage as adjuvant by intraperitoneal injection.
Two female mice 8 weeks old (named G and H) were immunized at approximately two week intervals with the streptavidin and biotinylated MAP-[…] (SEQ ID NO:1) complex (100 μg of MAP-[…] (SEQ ID NO:1) per mouse) by intraperitoneal injection without adjuvant.

[2] = tested on: amyloid anti-aggregating antibody; settings: Frenkel et al. 1998; ELISA; Nd = IC50 which cannot be detected by ELISA; read-out: Competitive inhibition of anti-aggregating antibody (IC50); cited from earlier work
[3] = tested on: serum antibody raised against f88-EFRH; assay: Competitive inhibition by peptides within βAP of serum antibody raised against f88-EFRH (ELISA); assay type: binding; settings: Nd = IC50 which cannot be detected by ELISA, read-out: Competitive inhibition of MICE SERUM antibody (IC50)
Description: The antibodies resulting from EFRH (SEQ ID NO:5) phage immunization are similar regarding their immunological properties to antibodies raised by direct injection with whole β-amyloid (Table 1). […] The high immunogenicity of filamentous phages enables the raising of antibodies against self-antigens.

Row | IC50 [3] [µM] | Substance | Immune response (serum IgG titers) [1] | IC50 [2] [µM]
1 |  | MAP-(EFRH)2: octavalent MAP carrying TyrGluPheArgHisTyrGluPheArgHis (SEQ ID NO:4), two EFRH epitopes per peptide (YEFRHYEFRH; also: octavalent lysine-core MAP) | strong immune response | 
2 | 5 | DAEFRHD [peptide, residues 1-7 of AβP] |  | 0.9
3 | 3 | DAEFRH [peptide, residues 1-6 of AβP] |  | 0.8
4 | 3 | βAP(1-40): full length β-amyloid peptide (1-40) |  | 0.8
5 | 5 | DAEFRHDSG |  | 1
6 | ~1000 | FRH: peptide, residues 4-6 of AβP (Amyloid-beta protein 40; UniProt P05067 675-677, looked up, fragment) |  | 3000

Source: patent publication US20050053575A1, “Antigenic product displaying multiple copies of an epitope of a deposit-forming polypeptide involved in plaque-forming diseases and methods of using same” (Ramot At Tel Aviv University Ltd, priority 2001, published 2005)
